Measurements taken from BigSolDB 2.1.

Cc1nnc(C(C)C)n1[C@@H]1C[C@H]2CC[C@@H](C1)N2CC[C@H](NC(=O)C1CCC(F)(F)CC1)c1ccccc1
solubility (mole fraction)
Conditions	278.15 K	283.15 K	288.15 K	293.15 K	298.15 K	303.15 K	308.15 K	313.15 K	318.15 K	323.15 K
in DMF	3.43e-05	5.31e-05	8.04e-05	0.000117	0.000181	0.000256	0.000364	0.000535	0.000744	0.00105
in DMSO	–	–	–	5.92e-05	8.77e-05	0.000133	0.000189	0.000273	0.00038	0.000539
in ethanol	0.000264	0.00038	0.0005	0.000715	0.00099	0.00142	0.00196	0.00273	0.0036	0.00458
in n-propanol	0.00022	0.000327	0.000454	0.000645	0.000911	0.00126	0.00167	0.00222	0.00296	0.00395
in water	5.73e-06	8.2e-06	1.15e-05	1.7e-05	2.47e-05	3.5e-05	5e-05	7.13e-05	9.89e-05	0.000137
